# pKi: −log10 of the molar value.
# How the values were obtained:
# [1] = molecular target: T1, human Adrenergic a2A receptor (Homo sapiens, UniProt P08913); test: Inverse agonist activity, GTPg35S binding functional assay (FAST-006G); assay type: biochemical; settings: dose-response, duplicates (FIG. 28)
# T1 construct: purchased Euroscreen FAST-006G
# T1 sequence (P08913 1-465): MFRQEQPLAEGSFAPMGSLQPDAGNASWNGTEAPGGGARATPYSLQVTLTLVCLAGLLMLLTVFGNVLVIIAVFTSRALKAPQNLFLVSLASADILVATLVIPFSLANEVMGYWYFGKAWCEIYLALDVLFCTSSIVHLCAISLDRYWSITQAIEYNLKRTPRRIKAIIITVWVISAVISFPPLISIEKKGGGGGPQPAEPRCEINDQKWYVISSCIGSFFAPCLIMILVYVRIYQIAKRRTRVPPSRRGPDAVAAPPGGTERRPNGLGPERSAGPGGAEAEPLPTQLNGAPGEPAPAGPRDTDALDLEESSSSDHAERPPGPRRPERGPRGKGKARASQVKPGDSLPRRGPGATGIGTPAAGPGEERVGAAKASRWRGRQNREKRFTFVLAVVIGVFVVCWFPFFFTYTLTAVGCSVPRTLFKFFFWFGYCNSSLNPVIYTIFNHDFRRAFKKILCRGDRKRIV
# Experimental: SPA 35S-GTPgS and Radioligand Binding experiments were conducted with Euroscreen membrane preparations. Compound was tested for inverse agonist activity at the human Adrenergic a2A receptor using GTPg35S binding functional assay (FAST-006G) in dose-response and in duplicates.
# [2] = tested on: dexmedetomidine induced dogs; test: Dexmedetomidine (DEX) induced beagle dog model of hypertension; assay type: in vivo
# Description: Four adult beagle dogs of both sex and weighted around 10 kg were chosen for the acute studies after a preliminary qualitative electrocardiogram/ECG, clinical pathology and physical examination. Upon arrival at the laboratory, the dogs were weighed and acclimated for a period of one week. Lab Diet certified canine diet #5007, PMI Nutrition International Inc was made available ad libitum to all dogs except during fasting periods. The dogs were surgically implanted with a pressure transducer equipped telemetry transmitter under sodium pentobarbitone anesthesia. The transmitter assembly was secured internally, the fluid-filled catheter was placed into an appropriate artery.
# In the acute studies, the test compounds 3b and 5b at different doses (dosing sequences provided in Table B7 for compound 3b and Table B8 for compound 5b) was administered by oral gavage, 30 minutes prior to intravenous dexmedetomidine (5 μg/kg) challenge. Dexmedetomidine administration was enabled by prior placement of a peripheral intravenous line. The same four dogs were received all four treatments in the order noted in the table below, with at least a 3-day washout period between treatments.
# For the chronic study mode (see Table B9), the test compound 3b at 3 doses was administered by oral gavage once on day 1 and then twice/day on days 2 to 14, and finally once on day 15. The dexmedetomidine was administered on day-4 to check its effectiveness in inducing blood pressure, and once following the morning dose of compound 3b or vehicle on days 2, 7 and 14. Blood pressure and heart rate data were collected 1 h prior & 4 h post-morning dose on days 1, 2, 7, 14 and 15 to allow the appropriate data comparisons. Blood aliquots were saved at 4 h post-morning dose for exposure determination.
# In both acute and chronic studies, dogs were weighed before dosing. Cardiovascular evaluations at each dose of test compound were collected with animals gently restrained in a sling. […] The dogs were monitored continuously for 3-4 hours subsequent to test compound administration and summarized in 5-minute bins. […]
# [3] = tested on: conscious New Zealand White rabbits; test: Blood pressure in conscious rabbits; assay type: in vivo, rabbit
# Experimental: Methods: Four adult New Zealand White rabbits of both sexes were chosen for these studies. […] To unveil peripheral effects of Compound 3b, two sets of acute studies were conducted in rabbits. […] A single intravenous bolus dose at 3 mg/kg was given and a time-course study was conducted in the second set of studies. Systolic, […], mean and […] blood pressures were recorded in both the studies. […] In a separate set of studies, Clonidine (positive control) was tested where all experimental procedures including dose-regimen were identical to that of the studies with […].
# [4] = molecular target: T2, human recombinant adrenergic α1D receptor (Homo sapiens, UniProt P25100); test: Radioligand binding, adrenergic α1D ([3H]Prazosin)
# T2 construct: expressed in transfected cells; host or cells: HEK-293
# T2 sequence (P25100 1-572): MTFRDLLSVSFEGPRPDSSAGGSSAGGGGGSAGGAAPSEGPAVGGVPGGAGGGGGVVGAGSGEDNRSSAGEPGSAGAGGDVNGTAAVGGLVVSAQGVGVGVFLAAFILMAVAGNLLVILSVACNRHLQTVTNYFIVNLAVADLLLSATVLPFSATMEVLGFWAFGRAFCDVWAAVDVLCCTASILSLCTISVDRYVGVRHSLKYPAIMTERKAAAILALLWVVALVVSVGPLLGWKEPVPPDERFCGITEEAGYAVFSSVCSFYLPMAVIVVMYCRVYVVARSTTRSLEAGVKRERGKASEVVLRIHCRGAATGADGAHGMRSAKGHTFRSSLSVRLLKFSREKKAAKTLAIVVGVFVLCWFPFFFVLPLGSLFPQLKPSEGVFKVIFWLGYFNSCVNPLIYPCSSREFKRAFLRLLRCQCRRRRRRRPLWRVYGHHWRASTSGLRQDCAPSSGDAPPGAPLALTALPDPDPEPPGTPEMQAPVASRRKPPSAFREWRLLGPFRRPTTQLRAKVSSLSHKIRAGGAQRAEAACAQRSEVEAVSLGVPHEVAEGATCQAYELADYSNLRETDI
# [5] = dexmedetomidine (5 μg/kg i.v.) induced dogs, acute studies, oral gavage 30 min before challenge
inverse agonist activity [1],pKi [4],SMILES,"systolic blood pressure [2, 5]","systolic blood pressure ([2]; dexmedetomidine induced dogs, chronic study, oral b.i.d., day 2, 7 and 14)",dose that produced 80% of the maximum drop in blood pressure ([3]; i.v. cumulative dose-response study),"heart rate ([3]; i.v. cumulative dose-response study (FIG. 26, fourth panel))","maximum arterial blood pressure drop ([3]; i.v. cumulative dose-response study, Compound 3b maximum at 10 mg/kg)","duration of arterial blood pressure effect ([3]; single i.v. bolus dose at 3 mg/kg, 3 hours data collection)","drop in arterial blood pressure ([3]; single i.v. bolus dose at 3 mg/kg, time-course study (FIG. 27))"
showed inverse agonist activity,,"Cc1ccc2c(c1)c1c(n2CC(O)c2ccncc2)CCN2CCCC12 (single isomer, unassigned) [129d]",,,,,,,
,6.59,"Cc1ccc2c(c1)c1c(n2CC(O)c2ccncc2)CCN(C)C1 (single isomer, unassigned) [3b]",dose-dependently reduced systolic blood pressure,dose dependently reduced systolic blood pressure,3 mg/kg,tachycardia,−11.6 mmHg,stable from 90 to 180 minutes,~−6 mmHg
,,"Cc1ccc2c(c1)c1c(n2CC(C)(O)c2cccnc2)CCN(C)C1 (single isomer, unassigned) [5b, 1-(1,2,3,4-tetrahydro-2,8-dimethylpyrido[4,3-b]indol-5-yl)-2-(pyridin-3-yl)propan-2-ol]",dose-dependently reduced systolic blood pressure,,,,,,

# Source: US8791132B2, “Compounds and methods for treatment of hypertension” (Medivation Technologies, Inc., priority 2011, dated 2014)
